Assay results published in ChEMBL document CHEMBL1770052, “Pharmacophore elucidation for a new series of 2-aryl-pyrazolo-triazolo-pyrimidines as potent human A3 adenosine receptor antagonists” (Bioorg Med Chem Lett, 2011).

Target: T1, Adenosine receptor A3 (Homo sapiens, UniProt P0DMS8)
T1 sequence (P0DMS8 whole entry): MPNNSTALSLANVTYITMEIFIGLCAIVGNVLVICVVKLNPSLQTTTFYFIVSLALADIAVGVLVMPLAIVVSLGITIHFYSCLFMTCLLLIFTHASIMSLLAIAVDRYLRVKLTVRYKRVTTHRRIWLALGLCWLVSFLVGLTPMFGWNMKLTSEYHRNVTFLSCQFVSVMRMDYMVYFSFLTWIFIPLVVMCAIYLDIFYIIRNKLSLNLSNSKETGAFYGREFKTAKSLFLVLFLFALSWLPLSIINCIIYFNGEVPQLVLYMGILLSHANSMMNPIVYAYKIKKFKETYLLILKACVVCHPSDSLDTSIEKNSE
Assay: Antagonist activity at human adenosine A3 receptor
Type: functional

Row | Ki | Structure (SMILES)
1 | 0.01 nM | Cn1cc2c(nc(NC(=O)N[n+]3ccccc3)n3nc(-c4ccco4)nc23)n1
2 | 8.48 nM | O=C(Cc1ccccc1)Nc1nc2nn(CCc3ccccc3)cc2c2nc(-c3ccc(Cl)cc3)nn12
